Results as given in patent US9040673B2, “Synthesis and identification of novel RSK-specific inhibitors” (University of Virginia Patent Foundation, priority 2009, dated 2015).

Assays:
MCF-7 cells = experiment: MCF-7 cell proliferation (CellTiter-Glo cell viability); type: cell-based, human
[1] = tested on: Ha-Ras transformed NIH/3T3 cells; experiment: proliferation of Ha-Ras transformed NIH/3T3 cells; type: cell-based
Experimental: FIGS. 7A & 7B. SL0101-1 inhibition of cell proliferation is reversible. FIG. 7A: Ha-Ras-transformed cells were treated with vehicle or 50 μM SL0101-1. After 48 hr the medium was replaced and cells previously incubated with vehicle were maintained in vehicle. Cells that had previously been incubated with SL0101-1 were treated with either SL0101-1 or vehicle (washout). Cell viability was measured 48 hr later. FIG. 7B: Determination of siRNA to inhibit cancer cell proliferation. Duplex siRNAs to a sequence in the bluescript plasmid (Control), RSK1, RSK2 or RSK1 and RSK2 were transfected into MCF-7 cells. Medium was replaced 24 hr post-transfection and the cells incubated for an additional 48 hr prior to measuring cell viability.
(§1) The importance of MAPK to proliferation and oncogenesis is well established. However, the role that RSK plays in these processes has not been examined. […] SL0101-1 produced striking morphology changes in the transformed cells but not in the parental cell line. The vehicle control treated Ha-Ras transformed cells were elongated whereas in response to SL0101-1 the cells became much larger and flatter, appearing more like the parental cells, or like Ha-Ras transformed cells treated with U0126.
Cell Culture. […] Cell viability was measured at indicated time points using CellTiter-Glo™ assay reagent (Promega) according to manufacturer's protocol. […]

[2] = tested on: NIH/3T3 parental cell line; experiment: proliferation of parental NIH/3T3 cell line; type: cell-based
Text: as §1
(§2) Cell Culture. For proliferation studies cells were seeded at 2500 to 5000 cells per well in 96 well tissue culture plates in the appropriate medium as described by American Type Culture Collection. After 24 hr, the medium was replaced with medium containing compound or vehicle as indicated. Cell viability was measured at indicated time points using CellTiter-Glo™ assay reagent (Promega) according to manufacturer's protocol. For in vivo inhibition studies, cells were seeded at 2.5×10^5 cells/well in 12 well cell culture clusters. After 24 hr, the cells were serum starved for 24 hr then incubated with compound or vehicle for 3 hr prior to a 30 min PDB stimulation. Cells were lysed as previously described (J. Biol. Chem. 273, 13317-13323 (1998)). The lysates were normalized for total protein, electrophoresed and immunoblotted. […]

LNCaP cells = experiment: LNCaP cell proliferation; type: cell-based, human; conditions: 50 μM (FIG. 8B)
Experimental: FIGS. 8A-8D SL0101-1 inhibits the proliferation of cancer cells but not normal cells. […] Cell viability was measured at indicated time points. Proliferation assays were conducted using CellTiter-Glo Luminescent Cell Viability Assay (Promega), performed 44 hrs after treatment for FIGS. 8A &B and at indicated points for FIG. 8C. The data are expressed relative to time 0.
as §2, with “immunoblotted. For cell imaging, Ha-Ras-transformed NIH/3T3 cells were seeded on LABTEK II chamber slides (Nalge) at a density of 1×10^4 cells/well. After 24 hr, fresh medium was added the indicated compounds or vehicle.” for “immunoblotted.”

p140, a RSK substrate = experiment: p140 phosphorylation in LNCaP line (anti-RPM antibody); type: cell-based, human
Experimental: The ability of SL0101-1 to inhibit the proliferation of the androgen-dependent human prostate line, LNCaP was tested. […] To investigate the RSK signal transduction pathway in the LNCaP line, a phosphospecific antibody to a RSK phosphorylation motif (RPM) was produced. Only a few downstream effectors of RSK have been identified and therefore, applicants anticipated that an anti-RPM antibody would be a very effective tool for identifying novel RSK substrates in vivo. An anti-RPM antibody has previously been reported that recognizes the RSK substrate, p140, a protein of unknown function. […] All lysates were normalized to each other using an anti-Ran antibody. Ran is used for normalization based on the observations that it is a general housekeeping protein, the activity or expression levels of which are not known to vary in any disease state.

J774A.1 cells = experiment: LPS-stimulated factor expression in J774A.1 cells (immunoblot); type: cell-based, murine; conditions: 60 μM, 1 μg/ml LPS, 24 hours
Text: FIGS. 2A & 2B Analysis of LPS stimulated cytokine expression. […] Reactions were terminated with 2×-SDS lysis buffer at indicated time points and the lysates were immunoblotted.
FIGS. 3A & 3B RSK inhibition abrogates LPS-induced iNOS expression. […] Twenty-four hours after treatment, reactions were terminated with 2×-SDS lysis buffer and the lysates were immunoblotted.
LPS activation of macrophages results in secretion of factors that stimulate the innate immune system. […] Twenty-four hours after LPS treatment the cells were lysed as previously described (Traish, et al., 1998. J. Biol. Chem. 273:13317-13323) in preparation for immunoblot analysis. Expression of the pro-inflammatory factors, TNFα, IL-1b, the anti-inflammatory factor, IL-10 and inducible nitric oxide synthase was examined by immunoblot of the cell lysates.

Y. pseudotuberculosis = type: cell-based, Yersinia pseudotuberculosis; conditions: 60 μM, liquid LB medium
macrophages = type: cell-based
HUVEC cells = experiment: HUVEC cell growth; type: cell-based, human
VCAM = experiment: LPS-induced VCAM expression in HUVEC cells; type: cell-based, human; conditions: 1 μg/ml LPS, 24 hours
Text: Twenty-four hours after LPS treatment, the cells were harvested with SDS lysis buffer in preparation for SDS-PAGE and immunoblot analysis. Lysates were normalized with regard to protein concentration. Equivalent loading was confirmed by use of an anti-Ran immunoblot.

CaLu-1 cells = experiment: CaLu-1 wound migration assay; type: cell-based, human; conditions: 60 μM, 24 hr after wounding
Experimental: CaLu-1 cells were sub-cultured to confluence in 35-mm plates. […] Scratches were made in the monolayer of cells using sterile, disposable micropipette tips. Images were captured either immediately following the wounding, 6 hr, or 24 hours after wounding. At the point of wounding, the cells at the wound edge show increased light refraction indicating damage. By 6 hr after wounding, the vehicle-treated cells at the wound edge present wide lamella (indicated by arrows) extending toward the direction of the wound. […] At 24 hr, the vehicle-treated cells have migrated into the wound and are enlarged to re-form the confluent monolayer.

Compound: CC(=O)O[C@@H]1[C@@H](OC(C)=O)[C@@H](O)[C@H](Oc2c(-c3ccc(O)cc3)oc3cc(O)cc(O)c3c2=O)O[C@H]1C [SL0101, kaempferol 3-O-(3″,4″-di-O-acetyl-α-L-rhamnopyranoside)]
- inhibition of MCF-7 cell growth (MCF-7 cells; 50 uM): similarly effective at inhibiting MCF-7 cell growth
- proliferation of MCF-7 cells (MCF-7 cells; 50 μM (FIG. 8A)): inhibited proliferation
- EC50 (MCF-7 cells; Homo sapiens, MCF7, read-out: EC50 of MCF-7 cell proliferation inhibition): ~50 µM
- growth rate of Ha-Ras transformed cells [1]: decreased the growth rate
- reversibility of growth inhibition (washout) ([1]; 50 μM for 48 hr, then washout, viability 48 hr later): Removal of SL0101-1 resulted in growth of the transformed cells
- proliferation of the parental line [2]: little effect on proliferation
- proliferation of LNCaP cells (LNCaP cells): completely inhibits the proliferation
- phosphorylation of p140 (p140, a RSK substrate): decrease the phosphorylation of p140
- LPS-induced iNOS expression (J774A.1 cells): abrogated the induction of iNOS expression
- expression of TNFα, IL-1b, IL-10 (J774A.1 cells): did not alter the expression
- direct effect on growth of Y. pseudotuberculosis (Y. pseudotuberculosis): does not directly affect the growth
- Y. pseudotuberculosis-induced actin rearrangement (macrophages): actin rearrangement is not observed
- rate of HUVEC cell growth (HUVEC cells): does not alter the rate of HUVEC cell growth
- expression of VCAM (VCAM): reduced expression of the angiogenesis marker VCAM in a dose-dependent manner
- migration of Calu-1 cells into wound (CaLu-1 cells): have not migrated to close the wound
